What was measured:
[1] = tested on: human skin fibroblasts; test: Cell viability, tetrazolium-formazan conversion; assay type: cell-based; settings: concentrations as high as 1 mM, up to 120 hours
Description: Viability of human fibroblast (CRL2076) and human neuroblastoma (SH-SY5Y) cells was tested after prolonged exposure to varying concentrations of AdDNJ. In a 96-well plate, fibroblasts were incubated in complete media containing increasing concentrations of AdDNJ up to 1 mM for either 72 or 120 hours at 37° C. in a humidified 8% CO2 incubator. Living cells were quantified using a tetrazoliuim-formazan conversion method according to the manufacturer's instructions (Promega Non-Radioactive 96-well Titer assay, TB112). SH-SY5Y cells were tested in the same manner as fibroblasts but plated in collagen-coated plates (Nunc #152036). After 24 hour, 48 hour and 120 hour exposure to AdDNJ, living SH-SY5Y cells were quantified as described above. All dosing concentrations were done in triplicate.

[2] = tested on: β-hex
Description: AdDNJ selectivity was assessed by measuring its effect on the enzymatic activity of hexosaminadase (Total Hex, Hex A/S and Hex B), and 3 other lysosomal hydrolases: alpha-galactosidase, beta-galactosidase and glucocerebrosidase. For enzymatic assays, wild-type fibroblast (CRL2076) pellets (˜2.5e6 cells/pellet) were lysed with 200 μl of pH 5 lysis buffer (Phosphate/citrate, 0.25% tauorocholate, 0.1% TX100). Fibroblast lysates were diluted 1:200 in pH 5 reaction buffer (lysis buffer without TX100) containing 2 mM of the appropriate 4-methylumbelliferyl (4-MU) substrate, incubated for 1 h at 37° C. and stopped with 0.5 M sodium carbonate. Released 4MU was measured using a Perkin Elmer Victor 5× fluorescence plate reader (ex355/em460). Measurement of Total Hex activity was carried out using 4-methylumbelliferyl beta-N-acetylglucosaminide (MUG); for Hex A/S activity 4MU-beta-N-acetylglucosamine-6-sulfate (MUGS); Hex B activity was calculated as the difference between Total Hex and Hex A/S activity; for alpha-galactosidase activity […]; for beta-galactosidase activity 4-MU beta-D-galactoside; for glucocerebrosidase activity 4MU beta-D-glucopyranoside. As positive controls for enzymatic inhibition 100 μM of the following compounds were used: for alpha-galactosidase, 1-deoxygalactonojirimycin; for beta-galactosidase, N-Butyl-1-deoxygalactonojirimycin; for glucocerebrosidase, isofagamine. For beta-hexosaminadase enhancement assays, fibroblasts were exposed to 0, 95, 390 and 780 nM of AdDNJ for 5 days followed by beta-hexosamindase activity measurement. Enzymatic activity measurements were done in duplicate.
5-week-old C57BL/J6 mice (n=5 mice/group, Taconic Farms, Germantown, N.Y.) were administered vehicle (water) or AdDNJ (30, 100 or 300 mg/kg) via oral gavage every day for 14 days. On day 15 mice were euthanized and brain/plasma collected for analysis. For single dose PK studies, 5-week-old C57BL/J6 mice (n=5 mice/group, Taconic Farms, Germantown, N.Y.) received a single 100 mg/kg dose (oral gavage) of AdDNJ and groups euthanized at 0.5, 1, 2, 4, 8, 16, 24 and 48 hours post dose for brain and plasma analysis. Whole brain tissue (10-15 mg) was homogenized in 1 mL of pH 5 lysis buffer for measuring beta-hexosaminidase activity as described above. AdDNJ levels were measured in plasma and brain samples using LC-MS/MS.

[3] = target: T1, β-galactosidase (β-Gal) (Homo sapiens, UniProt P16278); test: Selectivity: beta-galactosidase activity in fibroblast lysate; assay type: biochemical; settings: 10 μM, the highest concentration tested
T1 construct: wild-type fibroblast (CRL2076) pellets (˜2.5e6 cells/pellet) were lysed; host or cells: wild-type fibroblasts CRL2076, lysate
T1 sequence (P16278 29-677): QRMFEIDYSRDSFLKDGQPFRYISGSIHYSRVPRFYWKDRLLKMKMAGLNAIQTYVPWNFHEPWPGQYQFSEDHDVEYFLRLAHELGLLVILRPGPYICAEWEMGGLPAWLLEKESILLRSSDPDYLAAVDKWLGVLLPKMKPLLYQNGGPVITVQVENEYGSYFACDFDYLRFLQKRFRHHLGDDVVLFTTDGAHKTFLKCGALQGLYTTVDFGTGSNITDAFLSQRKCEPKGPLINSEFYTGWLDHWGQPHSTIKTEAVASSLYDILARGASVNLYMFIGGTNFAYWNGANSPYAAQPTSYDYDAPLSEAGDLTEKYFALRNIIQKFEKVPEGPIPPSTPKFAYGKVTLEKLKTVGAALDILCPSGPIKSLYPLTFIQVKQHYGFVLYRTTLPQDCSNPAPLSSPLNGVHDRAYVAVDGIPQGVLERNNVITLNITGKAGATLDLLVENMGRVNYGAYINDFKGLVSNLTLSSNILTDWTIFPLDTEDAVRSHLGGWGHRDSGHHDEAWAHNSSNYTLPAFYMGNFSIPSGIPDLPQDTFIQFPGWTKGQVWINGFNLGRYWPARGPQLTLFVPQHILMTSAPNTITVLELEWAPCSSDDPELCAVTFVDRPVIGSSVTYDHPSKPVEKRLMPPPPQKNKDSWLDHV
Text: (§1) Enzymatic activity measurements were done in duplicate.

[4] = tested on: Dutch APP^E693Q transgenic mice; test: Contextual and cued fear conditioning; assay type: in vivo; settings: 3-month course, 3-100 mg/kg
Description: The generation and characterization of Dutch APPE693Q mice transgenic mice is described in Gandy, S., et al. Days to criterion as an indicator of toxicity associated with human Alzheimer amyloid-beta oligomers. Annals of neurology 68, 220-230 (2010). 3-month-old male Dutch APP^E693Q mice transgenic mice were orally gavaged 5 days/week with either vehicle (water) (n=15) or 3, 10, 30 or 100 mg/kg AdDNJ for 3 months (n=13). All animal studies were approved and conducted in accordance with the Institutional Animal Care and Usage Committee. Mice were kept in a pathogen-free environment, on a 12-hour light/dark cycle and given ad libitum access to food and water. At 6 month of age treatment groups, and a 3-month-old untreated baseline group (n=15), were cognitively assessed in the NOR, EPM and FC tests. 48 hours following the final dose mice were perfused with ice-cold 1×PBS. The brain was removed and dissected into two hemispheres. […]
Contextual and cued fear conditioning was assessed using the ANY-Maze fear conditioning system (Stoelting Co., Wood Dale, Ill., USA) as previously described in Steele, J. W., et al. Early fear memory defects are associated with altered synaptic plasticity and molecular architecture in the TgCRND8 Alzheimer's disease mouse model. […]

[5] = tested on: β-hex; test: beta-hexosaminidase enhancement assay in fibroblasts; assay type: cell-based; settings: healthy human skin fibroblasts, 5 days, 95, 390 or 780 nM, dose-dependent
Text: as §1

[6] = daily gavage 14 days at 30, 100 and 300 mg/kg

In the case of `CC(=O)NC1CNC(CO)[C@@H](O)C1O` (some centres unmarked) [AdDNJ, 2-acetamido-1,2-dideoxynojirimycin], the “effect on cell viability” value [1] is reported as “little or no effect on cell viability”, the “time of maximum increase in β-hex levels” value ([2]; daily gavage 30, 100, 300 mg/kg) is reported as ~5 days and the “GM2 levels in whole brain extracts” value [2, 6] is reported as “without increasing GM2 levels”. The “brain β-hex levels” value [2, 6] was “dose-dependent increase”, the “half-life of elevated β-hex levels in the brain” value ([2]; data not shown) was ~2 days and the “inhibition of β-galactosidase (β-Gal)” value [3] was “did not inhibit”. For the same compound, the “contextual or cued fear conditioning” value [4] was “no effect” and the “increase in β-hex levels” value [5] was “up to 3 fold”.

Reference: US9675627B2, “Dosing regimens for treating and/or preventing cerebral amyloidoses” (Amicus Therapeutics, Inc., priority 2014, dated 2017)
